Source: a melting point compilation (Tetko et al.; mined from patent text by program, amines drawn as free bases though some values may be those of a salt)

melting point	Compound
68 to 71 °C	CC1(C(=O)C(CC2CCCCC2)n2cncn2)COCOC1 (stereo unspecified)
190 to 193 °C	CC1(c2cc(NC(=O)c3ccc(Cl)cn3)ccc2F)N=C(N)COCC1(F)F (stereo unspecified)
207 to 208 °C	O=C1CCCc2c1c1cc(Cl)ccc1n2Cc1ccc(F)cc1
44.4 to 46.9 °C	N#CC1(CCCCCCCCCCCCC2(C(=O)O)CC2)CC1
156 to 157 °C	C[C@H]1OC(=O)[C@@H]2C=C3CCCC[C@H]3[C@H](O)[C@H]12
125 °C	O=c1ncc(Cl)cn1COCc1ccccc1
168 to 173 °C	COc1cc(-c2oc3ccccc3c(=O)c2C(=O)NCCCCN2CCN(c3ccccn3)CC2)cc(OC)c1OC
122 to 125 °C	O=Cc1cccc(C=O)c1O
77 to 78 °C	CCOC(=O)Cc1cccc(C(=O)c2ccccc2)c1N
206 to 207 °C	Cc1ccc(NC(=O)c2ccc(CN3CCN(C)CC3)c(C(F)F)c2)cc1Nc1nccc(-c2cncnc2)n1
209 to 210 °C	CS(=O)(=O)c1ccc(-c2cc(C(F)F)nn2-c2ccc(S(N)(=O)=O)cc2)cc1
154 to 156 °C	CC1CC(=O)NN=C1c1ccc(NCCCN)c([N+](=O)[O-])c1 (stereo unspecified)
117 to 118 °C	CCOC(=O)C=Cc1cc([N+](=O)[O-])ccc1OCCCc1ccccc1
173 to 175 °C	O=C(O)COc1ccc(C(=O)c2cccc3ccccc23)c(Cl)c1Cl
134 to 135 °C	O=Cc1ccc(OCCN2Cc3ccccc3C2=O)cc1
156 to 158 °C	O=[N+]([O-])c1cc(Cn2nnnc2Sc2ccccc2)cc([N+](=O)[O-])c1
110 to 111 °C	Cc1ccc(S(=O)(=O)N2CCC[C@H](CBr)c3ccccc32)cc1
109 to 110 °C	CC1(C)OC(/C=C/c2ccc(Br)cc2)=CC1=O
83 to 85 °C	O=C(NCCCCSc1ccncc1)c1ccccc1O
155 to 157 °C	Cc1nc(CC2OC(COC(=O)c3ccccc3)C(O)C2O)n2nc(Cl)ccc12 (stereo unspecified)
141 °C	CC(C)c1ccc(C(=O)CCl)cc1S(N)(=O)=O
124 to 127 °C	CCN1C(=O)C(C)(C)C(=O)N(C)c2cc(CN(CCn3ccc4oc(C)cc4c3=O)Cc3cccnc3)ccc21
108 to 110 °C	CC(=O)Nc1nc(CCc2ccc(C(=O)NC(=N)N)cc2)c(Cc2ccc(S(C)(=O)=O)cc2)s1
268 to 274 °C	COCC1COc2cc3ncnc(Nc4cccc(Br)c4)c3cc2O1 (stereo unspecified)
132 to 133 °C	CC(=O)CCC(=O)c1ccc(S(C)(=O)=O)cc1
194 to 196 °C	CC(C)(C)[C@H](NC(=O)[C@@H](CC(=O)O)n1ccc(-c2ccc(-c3ccc(C(N)=O)cc3)cc2)c1)C(=O)Nc1ccncc1

melting point	Compound
173 to 175 °C	COC(=O)/C=C/c1ccc(N)nc1
114 to 116 °C	Nc1cncc(NC(=S)NC2CCCCC2)c1
89 to 91 °C	O=C(O)COC(c1cccc(-c2nnc(Nc3ccc(Cl)c(Cl)c3)s2)c1)c1cccc(C(F)(F)F)c1 (stereo unspecified)
112 to 113 °C	CC1(C)Cc2c(c(N3CCOCC3)nc3sc4c(N(CCO)CCN5CCOCC5)ncnc4c23)CO1
151 to 153 °C	CC(C)=NOCCCCn1cnc2c(N)nc3c(c21)CCCC3
161 to 163 °C	O=C(CCCN1CCC2(CC(O)c3c(Cl)cccc32)C1)c1ccc(F)cc1 (stereo unspecified)
134 °C	CC(C)N(Cc1ccc(Br)cc1)C(=S)Nc1ccccc1
112 °C	COC(=O)C1C(C)=NC(N2CCCCC2)=C(C(=O)OC(C)C)C1c1cccc([N+](=O)[O-])c1 (stereo unspecified)
120 °C	COc1ccc2ccc(N3C(=O)c4ccccc4C3OCC(=O)CC(C)C)nc2n1 (stereo unspecified)
144 to 148 °C	CCS(=O)CCON=Cc1nn(-c2c(Cl)cc(C(F)(F)F)cc2Cl)c(N)c1S(C)=O (stereo unspecified)
117 to 118 °C	CCN(CC)C(=O)c1cc(S(=O)(=O)Cc2ccccc2)c(N2CCC(c3ccccc3)CC2)cc1N(CC)CCN(C)C
218 to 219 °C	C(=C(c1ccccc1)c1ccccc1)c1ccc(N(c2ccccc2)c2ccc(N(c3ccccc3)c3ccccc3)cc2)cc1
192 to 194 °C	Cc1cn(-c2cc(NC(=O)c3ccc(C)c(C#Cc4ccc(NC(C)C)nn4)c3)cc(C(F)(F)F)c2)cn1
76 to 78 °C	CCN(C(=O)OC)c1c(C(=O)c2cnoc2C2CC2)ccc(Cl)c1Cl
162 °C	CCCC(=NOCC)C1=C(O)CC(c2c(OC)nc(C)c3c2CCCC3=O)CC1=O (stereo unspecified)
> 300 °C	CCn1c(=O)c(=O)[nH]c2cc([N+](=O)[O-])c(-n3cccc3)cc21
190 to 191 °C	O=S(=O)(Nc1cccc(Oc2cccc3cccnc23)c1)c1ccc(Cl)cc1
163 to 165 °C	Cc1ccc(C(=O)NN(C(=O)c2cc(Cl)sc2Cl)C(C)(C)C)cc1
132 to 133 °C	CC(=O)OCC(OC(C)=O)C1OC(OC(C)=O)(C(=O)O)CC(OC(C)=O)C1OC(C)=O (stereo unspecified)
119 to 120 °C	O=C(O)C(=O)c1ccc(OCCOC2CCc3ccccc3C2)cc1 (stereo unspecified)
130 to 132 °C	Nc1ccccc1C(=O)c1cccc(O)c1
125 to 134 °C	c1coc(CNCc2ccc(-c3cc4ncnc(Nc5ccc6[nH]ccc6c5)c4s3)cc2)c1
206 to 209 °C	Cc1nc2c(N)cc(Br)cc2n1C
270 to 274 °C	c1ccc(Nc2nc(-c3ccncc3)nc3ccccc23)cc1
68 to 69 °C	CC(C)(C)n1ncc(OCc2ccc(OC(F)(F)C(F)OC(F)(F)F)cc2)c(Cl)c1=O (stereo unspecified)
37 to 39 °C	CC(=NC1CCCCC1)N(C)C=Nc1ccc(C)cc1C

Second part, the compound before the results:

Compound	melting point
Cn1cncc1C(c1ccc(Cl)cc1)c1ccc2c(c1)C(c1cccc(Cl)c1)SCCC(=O)N2 (stereo unspecified)	199 °C
O=C(O)C1=COc2c(C(=O)c3cccs3)cc(Cl)c(Cl)c2O1	233 to 236 °C
COc1cc2cc(C(=O)N3CC(COS(C)(=O)=O)c4c3cc(N)c3ccccc43)[nH]c2c(OC)c1OC (stereo unspecified)	> 260 °C
Cc1cccc(NC(=O)NCC(=O)N(CC(=O)OC(C)(C)C)c2ccccc2-c2ccccc2)c1	177 °C
CCCCc1ncc(C(=O)OCC)c(NCc2ccc(-c3ccccc3-c3nnn[nH]3)cc2)n1	153 to 155 °C
BrCc1nc2cc(Br)ccc2s1	107 °C
COc1ccc(C(=O)Nc2nc3ccc(N(C)C)cc3c(NCc3ccco3)c2C#N)cc1	195 °C
COC(=O)c1ccc(CN(CC2CCOCC2)S(=O)(=O)c2ccc(Cl)cc2)cc1	115 to 117 °C
Nc1ncnc2c1c(-c1ccc(Oc3ccccc3)cc1)cn2C1CCC2(CC1)OCCO2	193 to 194 °C
O=C(Nc1ccc(-c2ccnc3c(C(=O)c4cccs4)cnn23)s1)c1ccccc1	162 to 165 °C
ClCc1cc(-c2ccccc2)nc2ccccc12	79 °C
N#Cc1nn(-c2c(Cl)cc(C(F)(F)F)cc2Cl)cc1C1(C(F)(F)C(F)(F)F)CC1	105 to 106 °C
CCCc1c(C(=O)NCc2ccc3cc(O)ccc3c2)cnn1-c1ccccc1	189 to 190 °C
CNc1nc(C(C)c2ccc(-c3ccccc3)c(F)c2)co1 (stereo unspecified)	134 to 135 °C
Cc1c(NC(=O)N2C[C@H](O[Si](C)(C)C(C)(C)C)C[C@H]2CO)ccc(C#N)c1Cl	169 to 171 °C
CCOC(=O)Cc1ccc(N[C@@H](CCC(N)=O)C(=O)O)cc1	180 °C
COc1ccnc(C(=O)N[C@H]2COC(=O)[C@H](Cc3ccccc3)[C@@H](OCSC)[C@H](C)OC2=O)c1O	159 to 160 °C
CCOC(=O)COc1ccc2ncnc(Nc3ccc(F)c(Cl)c3)c2c1	161 to 163 °C
Cc1cccc(C(=O)CC(=O)C2CCCC2)c1O	74 to 75 °C
CCOC(=NC(=O)Nc1ccc(OC(F)(F)F)cc1)c1ccccc1Cl	86 to 89 °C
Nc1sc2c(c1C(=O)c1ccccc1)CCSC2	92 to 95 °C
CC(C)(OCc1cc(-c2ccc(Cl)cc2)no1)C(=O)N1CCCCC1	239 to 242 °C

Compound	melting point
CCOC(=O)c1csc2cc(Oc3cc(Cl)nc(N)n3)ccc12	178 to 179 °C
CCOC(=Nc1cccc(C(F)(F)F)c1)C(C)C	95 to 100 °C
C#CCNC1=Nc2c(c(C)nn2C)C(c2ccccc2)=NC1	193 to 195 °C
O=C(Nc1ccc(CCc2nnn[nH]2)cc1)C(F)(F)C(F)(F)C(F)(F)F	161 to 162 °C
CSc1ccc(N=Cc2ccc(Cl)cc2)cc1	203 to 205 °C
CS(=O)(=O)c1ccc(-c2ccccc2N2CCCCC2)cc1	140 °C
C[C@H]1c2cc(F)ccc2-c2ccccc2N1S(=O)(=O)c1ccc(O)cc1	193 °C
Cc1cc(SC(C)C)c(NC(=O)CCCCCSc2nc3ccccc3o2)c(SC(C)C)n1	98 to 100 °C
CSc1ccc(-c2nc(SC)c(C#N)c(=O)n2-c2ccc(C)c(C)c2)cc1	234 to 236 °C
Cc1ccc2onc(-c3ccc(Cl)cc3)c2c1	95 °C
Oc1cc2c(cc1C=CCc1ccccc1)OCO2	83 °C
COc1ccc(-c2cc(CN3C(=O)c4ccccc4C3=O)c(=O)n(CC3CC3)n2)cc1F	242 to 244 °C
Cc1cccc(C(=O)NC(C)C)c1NC(=O)c1cc(C(F)(F)F)nn1-c1ncccc1Cl	194 to 196 °C
CCOC(=O)c1nc(S)n2c1c(=O)n(C)c1cc(C(F)(F)F)ccc12	282 °C
CC1OC(O)CC(NC(=O)C(F)(F)F)C1C (stereo unspecified)	132 to 134 °C
N#Cc1nn(-c2c(Cl)cc(C(F)(F)F)cc2Cl)cc1C=O	168 °C
CCOCCOc1ccc(-c2nc(=O)c3ccccc3s2)cn1	93.6 to 94.9 °C
N#Cc1cc(C2=Nc3ccc(C4CC4)cc3NC(=O)C2)ccn1	227 to 230 °C
COc1cccc(Oc2c(NS(=O)(=O)c3ccc(C(C)(C)C)cc3)ncnc2SCCO)c1	150 °C
CC(Cc1c[nH]c2ccccc12)(NC(=O)OC1C2CC3CC(C2)CC1C3)C(=O)NCCc1ccco1 (stereo unspecified)	87 to 97 °C
O=C1CCCc2ccc(OCCCC(=O)N3CCOCC3)cc21	88 to 90 °C
Nc1nc(Cc2ccc(Br)cc2)cc(C2CCN(C(=O)c3ccc4c(c3)OCO4)CC2)n1	162 °C
